Laboratory results: publication PMC11364775, “Ion occupancy of the selectivity filter controls opening of a cytoplasmic gate in the K2P channel TALK-2” (Nature Communications, 2024)

Tests used:
[1] = target: T1, WT TALK-2 channels (human K2P17.1) (Homo sapiens, UniProt Q96T54); assay: Inside-out patch-clamp, ligand activation of channel currents at +40 mV (oocytes); details: 5 µM; TALK-2 WT
T1 sequence (Q96T54 1-332): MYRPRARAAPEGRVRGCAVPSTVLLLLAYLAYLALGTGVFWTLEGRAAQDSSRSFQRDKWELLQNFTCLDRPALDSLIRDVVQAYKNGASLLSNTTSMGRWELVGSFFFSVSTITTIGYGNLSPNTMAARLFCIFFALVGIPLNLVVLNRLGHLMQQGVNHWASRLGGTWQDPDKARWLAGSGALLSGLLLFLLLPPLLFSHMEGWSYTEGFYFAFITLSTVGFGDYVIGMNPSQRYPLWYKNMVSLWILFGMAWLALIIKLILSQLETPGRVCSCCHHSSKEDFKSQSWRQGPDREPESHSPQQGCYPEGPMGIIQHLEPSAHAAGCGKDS
Procedure: Oocytes were surgically removed from anesthetized adult females, treated with type II collagenase (Sigma-Aldrich/Merck, Germany) and manually defolliculated. 50 nl of a solution containing the K^+ channel specific cRNA was injected into Dumont stage V - VI oocytes and subsequently incubated at 17 °C in a solution containing (mM): 54 NaCl, 30 KCl, 2.4 NaHCO3, 0.82 MgSO4 x 7 H2O, 0.41 CaCl2, 0.33 Ca(NO3)2 x 4 H2O and 7.5 TRIS (pH 7.4 adjusted with NaOH/HCl) for 1–7 days before use. Electrophysiological recordings: Excised patch measurements in inside-out configuration under voltage-clamp conditions were performed at room temperature (22 – 24 °C). […] Intracellular bath solutions and compounds were applied to the cytoplasmic side of excised patches for the various K^+ channels via a gravity flow multi-barrel pipette system. Intracellular solution had the following composition (in mM): 120 KCl, 10 HEPES, 2 EGTA and 1 Pyrophosphate (pH adjusted with KOH/HCl). In other intracellular bath solutions, K^+ was replaced by Rb^+ (pH 7.4 adjusted with RbOH/HCl). Currents were recorded with an EPC10 amplifier (HEKA electronics, Germany) and sampled at 10 kHz or higher and filtered with 3 kHz (-3 dB) or higher as appropriate for sampling rate.
Recorded currents were analyzed from stable membrane patches at a voltage defined in the respective figure legend or with a voltage protocol as indicated in the respective figure. The fold activation (fold change in (tail) current amplitude) of a ligand (drug or bioactive lipid) was calculated from Eq. 1:1 Fold activationFA=Iactivated/Ibasal where Iactivated represents the stable current level in the presence of a given concentration of a respective ligand and Ibasal the measured current before ligand application. Percentage inhibition or residual currents upon blocker application for a ligand (drug or bioactive lipid) was calculated from stable currents of excised membrane patches using the following Eqs. 2 and 3:2 %inhibition=1−Iinhibited/Ibasal*100 3 Residual current=100−%inhibition where Iinhibited refers to the stable current level recorded in the presence of a given concentration of a drug or bioactive lipid and Ibasal to the measured current before ligand application. The macroscopic half-maximal concentration-inhibition relationship of a ligand was obtained using a Hill-fit for dose-response curves as depicted in Eq. 4:4 %inhibition/activation=Ibase+Imax−Ibase/1+x1/2/x^rate where base and max are the currents in the absence and presence of a respective ligand, x is the concentration of the ligand, x1/2 is the ligand concentration at which the activatory or inhibitory effect is half-maximal, rate is the Hill coefficient.

WT TALK-2 channels = target: T2, WT TALK-2 channels (Homo sapiens, UniProt Q96T54); assay: Conductance-voltage (G-V) curves from tail currents, V1/2 (intracellular Rb+); type: cell-based; set-up: expressed in transfected cells; host or cells: Xenopus laevis oocytes (cRNA injection), excised inside-out patches; details: for Normalized current: TALK-2 WT + 5 µM Oleoyl-CoA
T2 sequence (Q96T54 1-332): T1 sequence (Q96T54 1-332)
Text: The voltage-dependent activation mechanism of the SF gate in K2P channels allows to estimate the electrical work (ΔG = zFΔV1/2) required for pore opening by fitting the G–V curve to a Boltzmann equation. […] The open state represents the situation of both gates being simultaneously open but voltage can only exert force on the SF gate that functions as voltage sensor. […] We further tested whether mutations that open the lower gate (L262A and L264A) would affect the extracellular pH sensitivity. […] We further explored this concept of allosteric coupling using the mutations identified in the functional alanine screen of TM2 and TM4. […]
Conductance-voltage (G–V) relationships were determined from tail currents recorded at a holding potential (VH) of −80 mV after 300 ms depolarizing steps as indicated in the respective figure legend. Data were analyzed with a single Boltzmann fit following Eq. 6:6 GV=Imax/1+e^V−V1/2/slope+Ibase where V1/2 represents the voltage of half-maximal activation, s is the slope factor and Imax and Ibase represent the upper and lower asymptotes. Under appropriate experimental conditions, you can use slope to calculate the valence (charge) of the ion moving across the channel. Slope equals R * T/ z * F where R is the universal gas constant, T is temperature in K, F is the Faraday constant, and z is the valence.

CCCCCCCC/C=C\CCCCCCCC(=O)SCCNC(=O)CCNC(=O)[C@H](O)C(C)(C)COP(=O)(O)OP(=O)(O)OC[C@H]1O[C@@H](n2cnc3c(N)ncnc32)[C@H](O)[C@@H]1OP(=O)(O)O [oleoyl-CoA]
Fold activation 5 µM oleoyl-CoA [1]: 19.13 fold | V1/2 shift (mV) (WT TALK-2 channels; 5 µM Oleoyl-CoA, shift of G-V curve): 26.7 mV | Normalized current (WT TALK-2 channels; Voltage 0.000): 0.186 | Normalized current (WT TALK-2 channels; Voltage 0.005): 0.210 | Normalized current (WT TALK-2 channels; Voltage 0.010): 0.238 | Normalized current (WT TALK-2 channels; Voltage 0.015): 0.274 | Normalized current (WT TALK-2 channels; Voltage 0.020): 0.318 | Normalized current (WT TALK-2 channels; Voltage 0.025): 0.366 | Normalized current (WT TALK-2 channels; Voltage 0.030): 0.416 | Normalized current (WT TALK-2 channels; Voltage 0.035): 0.467 | Normalized current (WT TALK-2 channels; Voltage 0.040): 0.514 | Normalized current (WT TALK-2 channels; Voltage 0.045): 0.557 | Normalized current (WT TALK-2 channels; Voltage 0.050): 0.597 | Normalized current (WT TALK-2 channels; Voltage 0.055): 0.633 | Normalized current (WT TALK-2 channels; Voltage 0.060): 0.668 | Normalized current (WT TALK-2 channels; Voltage 0.065): 0.699 | Normalized current (WT TALK-2 channels; Voltage 0.070): 0.727 | Normalized current (WT TALK-2 channels; Voltage 0.075): 0.755 | Normalized current (WT TALK-2 channels; Voltage 0.080): 0.778 | Normalized current (WT TALK-2 channels; Voltage 0.085): 0.804 | Normalized current (WT TALK-2 channels; Voltage 0.090): 0.822 | Normalized current (WT TALK-2 channels; Voltage 0.095): 0.844 | Normalized current (WT TALK-2 channels; Voltage 0.100): 0.861 | Normalized current (WT TALK-2 channels; Voltage 0.105): 0.882 | Normalized current (WT TALK-2 channels; Voltage 0.110): 0.895 | Normalized current (WT TALK-2 channels; Voltage 0.115): 0.911 | Normalized current (WT TALK-2 channels; Voltage 0.120): 0.926 | Normalized current (WT TALK-2 channels; Voltage 0.125): 0.934 | Normalized current (WT TALK-2 channels; Voltage 0.130): 0.943 | Normalized current (WT TALK-2 channels; Voltage 0.135): 0.956 | Normalized current (WT TALK-2 channels; Voltage 0.140): 0.963 | Normalized current (WT TALK-2 channels; Voltage 0.145): 0.968 | Normalized current (WT TALK-2 channels; Voltage 0.150): 0.977 | Normalized current (WT TALK-2 channels; Voltage 0.155): 0.979 | Normalized current (WT TALK-2 channels; Voltage 0.160): 0.985 | Normalized current (WT TALK-2 channels; Voltage -0.005): 0.170 | Normalized current (WT TALK-2 channels; Voltage -0.010): 0.157 | Normalized current (WT TALK-2 channels; Voltage -0.015): 0.148 | Normalized current (WT TALK-2 channels; Voltage -0.020): 0.137 | Normalized current (WT TALK-2 channels; Voltage -0.025): 0.129 | Normalized current (WT TALK-2 channels; Voltage -0.030): 0.123 | Normalized current (WT TALK-2 channels; Voltage -0.035): 0.120 | Normalized current (WT TALK-2 channels; Voltage -0.040): 0.115 | Normalized current (WT TALK-2 channels; Voltage -0.045): 0.109 | Normalized current (WT TALK-2 channels; Voltage -0.050): 0.104 | Normalized current (WT TALK-2 channels; Voltage -0.055): 0.102 | Normalized current (WT TALK-2 channels; Voltage -0.060): 0.097 | Normalized current (WT TALK-2 channels; Voltage -0.065): 0.093 | Normalized current (WT TALK-2 channels; Voltage -0.070): 0.092 | Normalized current (WT TALK-2 channels; Voltage -0.075): 0.089 | Normalized current (WT TALK-2 channels; Voltage -0.080): 0.088 | Normalized current (WT TALK-2 channels; Voltage -0.085): 0.088 | Normalized current (WT TALK-2 channels; Voltage -0.090): 0.087 | Normalized current (WT TALK-2 channels; Voltage -0.095): 0.087 | Normalized current (WT TALK-2 channels; Voltage -0.100): 0.087 | Normalized current (WT TALK-2 channels; Voltage -0.105): 0.086 | Normalized current (WT TALK-2 channels; Voltage -0.110): 0.086 | Normalized current (WT TALK-2 channels; Voltage -0.115): 0.086 | Normalized current (WT TALK-2 channels; Voltage -0.120): 0.086 | V1/2 (WT TALK-2 channels; TALK-2 WT, 5 µM ligand): 44.9 mV
